Experimental findings from patent US12503485B2, “Human aminosterol ENT-03 compounds, related compositions comprising the same, and methods of using the same” (Enterin, Inc., priority 2019, dated 2025) are described below.

Assay [1] addresses T1, PP1B (Homo sapiens, UniProt P62140).
T1 construct: purchased Recation Biology Inc
In words: Phosphatase assay PP1B (DiFMUP fluorescence). The assay is classed as biochemical. To be noted: for IC50: Table 2B, read-out: Compound IC50 (M) PP1B.

Assay [2] has as its target T2, PP1A (Homo sapiens, UniProt P62136).
T2 construct: purchased Recation Biology Inc
In words: Phosphatase assay PP1A (DiFMUP fluorescence). Particulars: for IC50: Table 2B, read-out: Compound IC50 (M) PP1A. The assay is classed as biochemical.

Assay [3] deals with T3, PTPN6/SHP1 (Homo sapiens, UniProt P29350).
T3 construct: purchased Recation Biology Inc
In words: Phosphatase assay PTPN6/SHP1. Particulars: for IC50: Table 2B, read-out: Compound IC50 (M) PTPN6/SHP1. The assay is classed as biochemical.

Assay [4] has as its target T4, PTPRC/CD45 (Homo sapiens, UniProt P08575).
T4 construct: purchased Recation Biology Inc
T4 sequence (P08575 26-1306): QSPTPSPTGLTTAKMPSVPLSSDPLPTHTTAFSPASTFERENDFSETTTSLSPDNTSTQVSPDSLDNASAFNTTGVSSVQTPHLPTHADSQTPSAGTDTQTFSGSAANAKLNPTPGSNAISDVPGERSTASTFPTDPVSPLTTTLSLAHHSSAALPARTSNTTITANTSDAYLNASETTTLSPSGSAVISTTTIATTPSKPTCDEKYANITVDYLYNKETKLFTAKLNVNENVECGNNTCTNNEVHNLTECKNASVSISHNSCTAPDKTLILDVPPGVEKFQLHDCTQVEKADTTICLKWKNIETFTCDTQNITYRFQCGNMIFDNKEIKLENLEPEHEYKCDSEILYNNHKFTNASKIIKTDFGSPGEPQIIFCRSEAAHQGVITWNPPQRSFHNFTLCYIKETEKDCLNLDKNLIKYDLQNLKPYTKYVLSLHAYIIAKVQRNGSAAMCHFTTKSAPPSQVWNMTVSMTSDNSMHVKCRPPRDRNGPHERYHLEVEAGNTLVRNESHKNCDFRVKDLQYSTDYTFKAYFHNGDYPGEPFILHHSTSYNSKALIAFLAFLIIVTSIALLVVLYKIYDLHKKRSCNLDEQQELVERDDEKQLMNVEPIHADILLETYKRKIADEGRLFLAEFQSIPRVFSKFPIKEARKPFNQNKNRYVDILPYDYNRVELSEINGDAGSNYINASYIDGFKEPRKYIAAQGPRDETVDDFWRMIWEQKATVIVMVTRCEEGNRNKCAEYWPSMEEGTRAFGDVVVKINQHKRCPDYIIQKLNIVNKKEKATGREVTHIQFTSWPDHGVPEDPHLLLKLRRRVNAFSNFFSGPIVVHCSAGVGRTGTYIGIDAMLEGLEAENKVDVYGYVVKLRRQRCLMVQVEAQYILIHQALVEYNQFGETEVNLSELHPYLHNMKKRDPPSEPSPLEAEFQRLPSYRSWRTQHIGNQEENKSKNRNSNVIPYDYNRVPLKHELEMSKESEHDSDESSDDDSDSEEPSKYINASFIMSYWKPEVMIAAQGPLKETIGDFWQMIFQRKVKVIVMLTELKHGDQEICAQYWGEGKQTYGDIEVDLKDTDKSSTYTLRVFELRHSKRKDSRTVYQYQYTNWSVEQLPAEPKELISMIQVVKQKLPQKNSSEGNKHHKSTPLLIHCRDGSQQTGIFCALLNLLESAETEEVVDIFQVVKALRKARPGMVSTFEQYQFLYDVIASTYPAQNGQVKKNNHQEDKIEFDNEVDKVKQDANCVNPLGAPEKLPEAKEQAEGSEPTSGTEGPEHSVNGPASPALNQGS
In words: Phosphatase assay PTPRC/CD45. In kind it is biochemical.

In assay [5] the target is T5, PTPN2/TC-PTP (Homo sapiens, UniProt P17706).
T5 construct: purchased Recation Biology Inc
T5 sequence (P17706 1-415): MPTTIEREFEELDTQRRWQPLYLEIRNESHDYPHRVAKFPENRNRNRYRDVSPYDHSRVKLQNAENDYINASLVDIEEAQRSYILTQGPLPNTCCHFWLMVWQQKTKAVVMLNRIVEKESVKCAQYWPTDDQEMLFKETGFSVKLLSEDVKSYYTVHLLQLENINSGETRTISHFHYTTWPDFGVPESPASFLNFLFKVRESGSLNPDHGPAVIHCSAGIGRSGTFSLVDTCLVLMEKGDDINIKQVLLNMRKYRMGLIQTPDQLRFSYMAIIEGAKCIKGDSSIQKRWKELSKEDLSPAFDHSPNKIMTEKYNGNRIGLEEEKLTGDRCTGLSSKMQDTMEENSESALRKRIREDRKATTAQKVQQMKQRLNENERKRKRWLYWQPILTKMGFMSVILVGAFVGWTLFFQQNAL
In words: Phosphatase assay PTPN2/TC-PTP. The assay is classed as biochemical. Particulars: for IC50: Table 2C, read-out: Compound IC50 (M) PTPN2/TC-PTP.

Assay [6] can be described thus: Weight loss in male Swiss Webster mice, i.p. dosing. To be noted: male Swiss Webster mice about 50 g, i.p. 10 mg/kg every other day; for loss of starting body weight: by 27 days. The assay is classed as in vivo. An excerpt: Food was provided ad lib.
Assay [7] is described as follows: Weight gain in growing male mice. In kind it is in vivo. To be noted: growing male mice about 25 g, similar dosing regimen. How it is done:
In a second experiment, growing male mice, about 25 grams, were administered either compound following a similar dosing regimen. As in the previous experiment, both compounds affected weight gain.

Assay [8] concerns the target T6, PTPN11/SHP2-FL (E76K) (Homo sapiens, UniProt Q06124, E76K).
T6 sequence (Q06124 2-597 isoform Q06124-1 E76K): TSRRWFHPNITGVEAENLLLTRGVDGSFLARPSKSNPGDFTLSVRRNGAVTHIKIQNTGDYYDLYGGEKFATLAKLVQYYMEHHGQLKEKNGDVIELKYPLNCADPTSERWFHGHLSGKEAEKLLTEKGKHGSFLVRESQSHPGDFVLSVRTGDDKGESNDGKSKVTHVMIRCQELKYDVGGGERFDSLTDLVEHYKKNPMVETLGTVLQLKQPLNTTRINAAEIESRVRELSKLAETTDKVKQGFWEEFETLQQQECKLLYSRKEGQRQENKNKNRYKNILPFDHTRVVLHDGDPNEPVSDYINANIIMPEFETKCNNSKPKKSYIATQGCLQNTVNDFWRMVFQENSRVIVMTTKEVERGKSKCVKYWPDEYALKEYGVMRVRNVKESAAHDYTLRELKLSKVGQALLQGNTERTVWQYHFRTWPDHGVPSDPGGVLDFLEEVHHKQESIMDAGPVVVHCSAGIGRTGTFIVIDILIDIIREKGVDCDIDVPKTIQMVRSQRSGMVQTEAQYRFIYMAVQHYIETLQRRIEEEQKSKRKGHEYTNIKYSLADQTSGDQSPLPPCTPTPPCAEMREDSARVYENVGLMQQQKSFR
In words: Phosphatase assay PTPN11/SHP2-FL (E76K).

T2 sequence (P62136 whole entry): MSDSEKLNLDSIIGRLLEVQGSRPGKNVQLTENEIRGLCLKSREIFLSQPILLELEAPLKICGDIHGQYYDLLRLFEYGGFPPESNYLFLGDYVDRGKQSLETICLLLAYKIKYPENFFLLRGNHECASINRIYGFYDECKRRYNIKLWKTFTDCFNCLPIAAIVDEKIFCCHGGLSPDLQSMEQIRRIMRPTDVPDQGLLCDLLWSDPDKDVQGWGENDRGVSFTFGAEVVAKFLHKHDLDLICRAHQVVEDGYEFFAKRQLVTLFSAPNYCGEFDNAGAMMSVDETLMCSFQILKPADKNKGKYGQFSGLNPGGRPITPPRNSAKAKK
T1 sequence (P62140 whole entry): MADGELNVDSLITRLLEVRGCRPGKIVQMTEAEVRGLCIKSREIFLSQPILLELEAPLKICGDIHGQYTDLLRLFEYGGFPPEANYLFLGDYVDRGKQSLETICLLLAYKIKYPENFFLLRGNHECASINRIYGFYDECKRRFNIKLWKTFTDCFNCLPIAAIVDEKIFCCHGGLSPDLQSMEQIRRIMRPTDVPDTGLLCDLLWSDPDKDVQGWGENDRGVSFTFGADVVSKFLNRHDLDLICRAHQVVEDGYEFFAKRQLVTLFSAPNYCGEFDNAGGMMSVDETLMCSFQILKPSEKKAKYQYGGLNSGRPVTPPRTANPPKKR
T3 sequence (P29350 whole entry): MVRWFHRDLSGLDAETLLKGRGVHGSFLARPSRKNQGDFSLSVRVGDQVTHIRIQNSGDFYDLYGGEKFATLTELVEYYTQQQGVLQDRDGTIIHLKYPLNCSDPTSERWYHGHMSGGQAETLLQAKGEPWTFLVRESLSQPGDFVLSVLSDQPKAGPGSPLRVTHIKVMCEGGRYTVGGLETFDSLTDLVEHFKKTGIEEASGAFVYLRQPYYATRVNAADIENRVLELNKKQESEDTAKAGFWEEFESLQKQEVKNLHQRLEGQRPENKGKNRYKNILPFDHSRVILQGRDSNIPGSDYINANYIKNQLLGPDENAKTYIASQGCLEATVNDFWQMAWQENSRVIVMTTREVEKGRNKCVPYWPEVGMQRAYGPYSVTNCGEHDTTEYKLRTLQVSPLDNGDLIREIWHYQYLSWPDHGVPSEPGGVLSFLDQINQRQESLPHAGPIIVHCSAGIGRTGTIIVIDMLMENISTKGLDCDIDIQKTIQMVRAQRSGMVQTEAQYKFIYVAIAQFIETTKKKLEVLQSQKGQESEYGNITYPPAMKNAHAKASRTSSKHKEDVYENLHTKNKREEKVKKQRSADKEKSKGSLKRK

On to `CC(C)[C@@H](CC[C@@H](C)[C@H]1CC[C@H]2[C@@H]3[C@H](O)C[C@H]4C[C@@H](NCCCNCCCCNCCCN)CC[C@]4(C)[C@H]3CC[C@]12C)OS(=O)(=O)O` (single isomer, unassigned) [ENT-02, trodusquemine], for which the IC50 in assay [1] is greater than 0.0001 M. The IC50 in assay [2] was greater than 0.0001 M. Moreover, in assay [3], the “activity at PTPN6/SHP1, in words” value is recorded as “Neither compound inhibits” and the IC50 was greater than 0.0001 M. Besides, in assay [4], the “activity on PTPRC/CD45, in words” value is given as “target”. For the same compound, the IC50 in assay [5] was greater than 0.0001 M. In addition, in assay [6], the “effect on weight, in words” value is given as “more severe decline”; the nadir of weight was roughly 16 days; the “recovery to the starting weight” value is roughly 45 days; the “loss of starting body weight” value was “about 10%”. The “effect on growth, in words” value in assay [7] is on record as “suppressed growth”. Besides, the “inhibition of PTPN11 (E76K), in words” value in assay [8] was “potently inhibit”.
In the case of `CC(CCCC(C)C1CCC2C3C(O)CC4CC(NCCCNCCCCNCCCN)CCC4(C)C3CCC12C)C(=O)O` (single isomer, unassigned; ent-03) [ENT-03, 3-β-Spermino-7α-hydroxy-5α-cholestanoic acid], in assay [1], the “activity at PP1B, in words” value was “inactive” and the IC50 was greater than 0.0001 M. Besides, in assay [2], the “activity at PP1A, in words” value was “inactive” and the IC50 was greater than 0.0001 M. In assay [3], the IC50 is greater than 0.0001 M. Further, in assay [4], the “activity on PTPRC/CD45, in words” value was “target”. The IC50 in assay [4] (Table 2B, read-out: Compound IC50 (M) PTPRC/CD45) was determined as 5.71e-07 M. For the same compound, in assay [5], the “activity at PTPN2, in words” value was “inactive” and the IC50 is greater than 0.0001 M. Further, in assay [6], the “effect on weight, in words” value is “weight loss”; the nadir of weight is roughly 16 days; the “recovery to the starting weight” value is roughly 45 days; the “loss of starting body weight” value is “about 10%”. For the same compound, in assay [7], the “effect on growth, in words” value was “continued normal growth”. For the same compound, the “inhibition of PTPN11 (E76K), in words” value in assay [8] is given as “potently inhibit”.
